Reference: US20050148553A1, “Use of tigecycline, alone, or in combination with rifampin to treat osteomyelitis and/or septic arthritis” (priority 2003, published 2005)
In brackets after ≈: the same amount, converted by molar mass. Several values for one entry are separate records, joined by “and”; a condition that tells them apart may be missing. Equal values may be shown once. Read-outs that look alike come from different tables or passages of the source.

Assays:
Acinetobacter baumannii = test: Compassionate use study, osteomyelitis patient; type: in vivo, human; conditions: one human patient
Protocol: The patient was treated with meropenem and tobramycin. […] The patient was then treated with tigecycline for two months with either 50 mg every 12 hours or 50 mg every 24 hours.

A. baumanii = test: Susceptibility of patient isolate; type: cell-based, Acinetobacter baumannii; conditions: A. baumanii from patient bone
[1] = Antibiotic levels in rabbit serum and bone by diffusion bioassay; type: in vivo, New Zealand white rabbits; conditions: infected rabbits; tigecycline 14 mg/kg, vancomycin 30 mg/kg twice daily
Protocol: Normal NZW rabbit serum (Fisher Scientific) and normal, uninfected rabbit tibia bone were used to generate standard curves for tigecycline (Wyeth-Ayerst Research, Pearl River, N.Y.), vancomycin (Abbott Laboratories, Chicago, Ill.), and rifampin (Merrell Pharmaceuticals Inc. Kansas, Mo.). Bioassays were performed with each drug to generate the standard curves for antibiotic concentration in serum and/or tibial bone.
The organism used for the bioassay was Bacillus cereus ATCC11778. Serum standards were prepared using two-fold serial dilutions with either antibiotic to yield concentrations of 25 μg/ml to 0.20 μg/ml drug in Normal NZW rabbit serum. Bone eluate standards were prepared for tigecycline by thoroughly cleaning noninfected rabbit tibias with 70% ethanol in a sterilized fume hood. Each tibia was broken into small chips of approximately 0.5 cm^2 using a grinder. The chips were placed into a sterile, 50 ml conical centrifuge tube and weighed. One milliliter of sterile, 0.9% normal saline was added for each gram of bone chips. The solution was thoroughly vortexed for two minutes. The resulting bone eluate was allowed to shake at 180 rpm in a cold room at 4° C., for 12 hours. The samples were centrifuged at 4000 rpm for 3 minutes prior to assay, to pellet the chips.
The diameter of the zone of growth inhibition around each well was measured, in millimeters. A standard curve was generated for tigecycline concentration in both serum and bone eluate and for vancomycin in serum by plotting the known antibiotic concentration against its resulting zone of inhibition measurement. […]
Serum samples were stored at −70° C. until the bioassay was performed. […] The diameter of the zone of growth inhibition around each well was measured and concentrations of tigecycline were extrapolated from the standard curve.
Peak and trough levels of antibiotic were determined for Groups 2 and 4 at 1 hour (peak) and 12 hour (trough) after the initial antibiotic administration. Antibiotic concentrations were determined by means of a bioassay. […]

[2] = Adverse events and weight variance in infected treated rabbits; conditions: infected rabbits after antibiotic treatment
Text: All rabbits were monitored weekly for weight variance. […] The key for FIGS. 4A and B is as follows: Control=control group, no treatment; Vancomycin=subcutaneous vancomycin treated group; Vanco+Rifampin=subcutaneous vancomycin with oral rifampin treated group; Gar-936=subcutaneous Gar-936 treated group; Gar-936+Rifampin=subcutaneous Gar-936 with oral Rifampin treated group.

[3] = tested on: methicillin-resistant S. aureus; test: microbe, parasite or virus in culture; type: cell-based, Staphylococcus aureus; conditions: for MBC / MIC: Staphylococcus aureus; for MBC: read-out: minimum bactericidal concentration (MBC); for MIC: read-out: minimum inhibitory concentration (MIC)
Protocol: The minimum inhibitory concentrations (MIC) of tigecycline, vancomycin and rifampin were determined using an antibiotic two-fold tube-dilution method. The minimum bactericidal concentrations were also determined. The limits of sensitivity of this method were 25 μg/ml to 0.20 μg/ml.

[4] = tested on: methicillin-resistant S. aureus
Protocol: Preparation of the Infective Media: S. aureus was incubated overnight in Mueller Hinton Broth (Difco Laboratories, Detroit, Mich.) medium spiked with 40 μg/ml oxacillin, at 37° C. The bacterial concentration of the culture was adjusted to 10^7 CFU's/ml.
Rabbit Infection Procedure: New Zealand white rabbits (Ray Nicholl's Rabbitry, Lumberton, Tex.), eight to 12 weeks old and weighing 2.0 to 3.5 kg, were utilized for the study. After anesthesia was given, an 18-gauge needle was inserted percutaneously through the lateral aspect of the left tibial metaphysis into the intramedullary cavity. Next, 0.15 ml of 5% sodium morrhuate (American Regent Laboratories, Inc., Shirley, N.Y.), 0.1 ml of S. aureus (10^7 CFU/ml), and 0.2 ml of sterile, normal saline, 0.9%, were injected sequentially.
Group 1 (control group): infected but left untreated for the duration of the study. Group 2: rabbits were treated for 4 weeks with subcutaneous vancomycin at 30 mg/kg twice daily. Group 3: rabbits were treated for 4 weeks with subcutaneous vancomycin at 30 mg/kg twice daily plus oral rifampin at 40 mg/kg twice daily in 0.5% methylcellulose. Group 4: rabbits were treated for 4 weeks with subcutaneous tigecycline at 14 mg/kg twice daily. Group 5: rabbits were treated for 4 weeks with subcutaneous tigecycline at the same dose as in the rabbits in Group 4, plus oral rifampin at 40 mg/kg twice daily in 0.5% methylcellulose. […] Group 6: rabbits were treated for 1 week with subcutaneous tigecycline at the same dose as in Group 4, but were sacrificed 3 hours after administration of the last dose. At that time, blood and infected bone samples were collected and tigecycline concentration was determined. Groups 1 to 5 were left untreated for 2 weeks after treatment phase of the experiment and sacrificed at 8 weeks after infection.
Radiographs of bilateral tibias were taken at initiation of therapy (2 weeks after infection), at the end of antibiotic therapy (6 weeks after infection), and at sacrifice (8 weeks after infection). Radiographs were scored according to a visual scale (Table 1) by three investigators, each blinded to the treatment group, and the grades were averaged.
After sacrifice, gross cultures were performed for right and left tibias. Quantitative counts of S. aureus, in CFUs per gram, of left tibial bone and marrow were determined for all study groups.
Culture Preparation: The bone marrow and the intramedullary canal of bilateral tibias were swabbed with sterile cotton tip applicators for gross cultures analysis of left tibias and quality assurance checks of right tibias. The inoculated applicator was streaked onto blood plates and then placed into 5 ml of sterile TSB. The plates and tubes were then incubated at 37° C. for 24 hours and growth and/or turbidity was recorded.
The bone marrow was placed into a sterile, 50 ml centrifuge tube and weighed. The bone fragments were broken into 0.5 cm^2 chips, placed into a sterile, 50 ml centrifuge tube, and the final product weighed. Normal sterile saline, 0.9%, was added in a 3 to 1 ratio (3 ml saline/gram of bone or marrow) and the suspensions were vortexed for 2 minutes. Six ten-fold dilutions of each suspension were prepared with sterile, normal saline, 0.9%. Twenty-microliter samples of each dilution, including the initial suspension, was plated, in triplicate, onto blood agar plates and incubated at 37° C. for 24 hours. CFUs were counted at the greatest dilution for each tibia sample.

M. abcessus = test: Susceptibility/MIC of patient isolate, compassionate use study; type: cell-based, Mycobacterium abscessus; conditions: M. abscessus patient isolate
Mycobacterium abscessus = type: in vivo, human; conditions: human, in vivo
Protocol: Debridement was accomplished after one year of infection with placement of hardware. […] The amikacin was later stopped due to renal damage. Linezolid and azithromycin were later added to the treatment regimen. The organism was determined to be resistant to moxifloxacin.
The patient presented later with a new vertebral osteomyelitis just above the site of the old infection. A biopsy was performed and it was determined that no additional debridement was needed. […] Tigecycline was administered up to MIC 0.25 micrograms/ml. The patient's white blood cell count was normal while hypogammaglobulinemia was present and lymphocytic function decreased. The patient had also been under treatment with IL-12, but IL-12 was held during antibiotic treatment.

[5] = average grade, t=14 versus t=56 days
[6] = individual rabbits, left tibia, 8 weeks after infection

With `C[C@@H](O)[C@H]1C(=O)N2C(C(=O)O)=C(S[C@@H]3CN[C@H](C(=O)N(C)C)C3)[C@H](C)[C@H]12` [Meropenem] the “adverse event leading to discontinuation” value (Acinetobacter baumannii) was “eosinophilia”.
With gentamicin the “susceptibility of the organism” value (A. baumanii) was “susceptible”.
In the case of `CN[C@H](CC(C)C)C(=O)N[C@H]1C(=O)N[C@@H](CC(N)=O)C(=O)N[C@H]2C(=O)N[C@H]3C(=O)N[C@H](C(=O)N[C@H](C(=O)O)c4cc(O)cc(O)c4-c4cc3ccc4O)[C@H](O)c3ccc(c(Cl)c3)Oc3cc2cc(c3O[C@@H]2O[C@H](CO)[C@@H](O)[C@H](O)[C@H]2O[C@H]2C[C@](C)(N)[C@H](O)[C@H](C)O2)Oc2ccc(cc2Cl)[C@H]1O` [Vancomycin], the “antibiotic serum levels (peaks and troughs)” value [1] is reported as “above minimum inhibitory concentrations”, the mean weight gain [2] is reported as 0.39 kg and the MIC/MBC ratio ([3]; MRSA study strain) is reported as 0.5. For the same compound, the MBC ([3]; MRSA) was 0.78 µg/mL (≈ 0.538 µM), the MIC ([3]; MRSA) was 0.39 µg/mL (≈ 0.269 µM) and the “radiographic improvement (grade)” value [4, 5] was 0.5+/−0.2. For the same compound, the “radiographic improvement (percent)” value [4, 5] was 25%, the “percentage of bone samples positive for MRSA” value ([4]; bone cultures) was 18.2% and the “rabbits/samples positive for MRSA in bone” value ([4]; bone cultures at sacrifice) was 2 out of 11. For the same compound, the “proportion of positive cultures in marrow” value ([4]; compared with 0.33 (5/15) in control group) was “not statistically significantly different from the control group”, the “Counts (CFU/gm) Bone” value [4, 6] was 270.3 CFU/gm and 1315.8 CFU/gm and 0 CFU/gm (14×) and the “Counts (CFU/gm) Marrow” value [4, 6] was 1250 CFU/gm and 0 CFU/gm (15×). For the same compound, the “average bacterial concentration of the group” value ([4]; tibia bone) was 1.4×10^2 CFU/gram bone.
In the case of `C[C@H]1[C@H](NC(=O)/C(=N\OC(C)(C)C(=O)O)c2csc(N)n2)C(=O)N1S(=O)(=O)O` [Aztreonam], the “adverse event leading to discontinuation” value (Acinetobacter baumannii) is reported as “persistent eosinophilia”.
With `NC[C@H]1O[C@H](O[C@H]2[C@H](O)[C@@H](O[C@H]3O[C@H](CO)[C@@H](O)[C@H](N)[C@H]3O)[C@H](N)C[C@@H]2N)[C@H](N)C[C@@H]1O` [tobramycin] the “susceptibility of the organism” value (A. baumanii) was “susceptible” and the “adverse event leading to discontinuation” value (Acinetobacter baumannii) was “increased creatinine”.
Compound `CO[C@H]1/C=C/O[C@@]2(C)Oc3c(C)c(O)c4c(O)c(c(/C=N/N5CCN(C)CC5)c(O)c4c3C2=O)NC(=O)/C(C)=C\C=C\[C@H](C)[C@H](O)[C@@H](C)[C@@H](O)[C@@H](C)[C@H](OC(C)=O)[C@@H]1C` [rifampin] has an MIC/MBC ratio ([3]; MRSA study strain) of 0.5, an MIC ([3]; MRSA, MRSA study strain, inoculum 10^6 CFU/ml) of 0.78 µg/mL (≈ 0.948 µM) and an MBC ([3]; MRSA study strain, inoculum 10^6 CFU/ml) of 1.56 µg/mL (≈ 1.9 µM). For the same compound, the “bacterial outcome in bone and marrow, in words” value ([4]; end of study, MRSA infected rabbits) was “bactericidal activity”.
For `O=C(O)c1cn(C2CC2)c2cc(N3CCNCC3)c(F)cc2c1=O` [ciprofloxacin], the “susceptibility of the organism” value (A. baumanii) was “resistant”.
In the case of `CO[C@@]1(NC(=O)Cc2cccs2)C(=O)N2C(C(=O)O)=C(COC(N)=O)CS[C@@H]21` [cefoxitin, reference compound], the “susceptibility of the organism” value (M. abcessus) is reported as “sensitive”.
With `NCC[C@H](O)C(=O)N[C@@H]1C[C@H](N)[C@@H](O[C@H]2O[C@H](CN)[C@@H](O)[C@H](O)[C@H]2O)[C@H](O)[C@H]1O[C@H]1O[C@H](CO)[C@@H](O)[C@H](N)[C@H]1O` [amikacin, reference compound] the “adverse event leading to discontinuation” value (Mycobacterium abscessus) was “renal damage”.
